Test results from patent US8785452B2, “Anti-infective compounds” (priority 2008, dated 2014).
Read-outs that look alike come from different tables or passages of the source.

Experiments:
Raw264.7 cells [1] = settings: mouse, 5 days; for Primary QIM CellNb: 20 μM
Raw264.7 cells [2] = test: Cell number (CellNb) from image analysis of the phenotypic cell-based assay; settings: for Primary QIM CellNb: primary screen, 20 μM
[3] = test system: M. tuberculosis H37Rv-GFP; test: microbe, parasite or virus in culture; assay type: cell-based, Mycobacterium tuberculosis; settings: for inhibition at 20 µM: Mycobacterium tuberculosis, H37RV, Macrophage
M. tuberculosis H37Rv = test: Conventional CFU determination in infected macrophages; assay type: cell-based, Mycobacterium tuberculosis; settings: human and mouse cells; seven days after infection; 232 at 20 μM
[4] = confirmation, 20 uM, read-out: QIM Confirm % Inhibition 20 uM
[5] = primary screen, 20 μM, read-out: Primary QIM % Inhibition

| SMILES | melting point | Primary QIM CellNb (Raw264.7 cells [1]) | Primary QIM CellNb (Raw264.7 cells [2]) | inhibition at 20 µM [3, 4] [%] | inhibition at 20 µM [3, 5] [%] | QIM Confirm CellNb 2 uM (Raw264.7 cells [1]) | QIM Confirm CellNb 2 uM (Raw264.7 cells [2]; confirmation) | QIM Confirm CellNb 0.2 uM (Raw264.7 cells [2]; confirmation, 0.2 uM) | decrease in the number of CFUs (M. tuberculosis H37Rv) | bacterial load and host cell abundance versus DMSO control [3] |
| --- | --- | --- | --- | --- | --- | --- | --- | --- | --- | --- |
| CS(=O)(=O)O[C@H]1CCN(C(=O)c2cc([N+](=O)[O-])cc([N+](=O)[O-])c2)C1 | 138 to 140 °C | – | – | – | – | – | – | – | – | – |
| CNC(=O)c1c(Nc2ccc(F)c(Cl)c2)nc2c(OC)cccn2c1=O | 218 °C (dec.) | – | – | – | – | – | – | – | – | – |
| COc1cccn2c(=O)c(CO)c(Nc3ccc(F)c(F)c3)nc12 | 231 °C (dec.) | – | – | – | – | – | – | – | – | – |
| CC(/C=N/NC(=O)c1ccncc1)c1ccccc1 (stereo not shown) [IPK 000 105 20] | – | 103.8 | 316.5 | 96.4 | 97.1 | – | – | – | – | – |
| CCCCc1ccc(C(=O)Nc2ccc(Br)cn2)cc1 [IPK 000 105 47] | – | 68.1 | 125.8 | 50.7 | 60.1 | – | – | – | – | – |
| CCOC(=O)CSc1nc(N)c(C(=O)Nc2ccc(N(C)C)cc2)s1 [IPK 000 105 70] | – | 4.7 | 315.5 | 84.6 | 61.2 | – | – | – | – | – |
| Nc1nonc1NC(=O)CSc1cccc2ccccc12 [IPK 000 106 30] | – | 28.5 | 146.5 | 67.2 | 65.7 | – | – | – | – | – |
| CCc1ccc(/C=C(/C#N)C(=O)OC(C)C)s1 [IPK 000 107 90] | – | 52.8 | 494.3 | 89.6 | 79.3 | – | – | – | – | – |
| O=C(CS)Nc1ccccc1Cl [IPK 000 108 27] | – | 19.0 | 171.0 | 44.1 | 54.7 | – | – | – | – | – |
| CCOc1ccc(NC(=S)Nc2ccccc2)cc1 [IPK 000 108 78] | – | 38.3 | 200.3 | 68.8 | 78.8 | – | – | – | – | – |
| O=C1CSC(N/N=C/c2cc([N+](=O)[O-])ccc2O)N1 (stereo not shown) [IPK 000 109 00] | – | 23.8 | 87.8 | 8.2 | -7.8 | – | – | – | – | – |
| CCOC(=O)/C=C/C(=O)NNC(=O)c1cccs1 [IPK 000 109 99] | – | 20.3 | 183.0 | 28.1 | 8.5 | 101.3 | 174.3 | – | – | – |
| CCOC(=O)/C=C/C(=O)Nc1sc(Cc2ccccc2)c(C)c1C(N)=O [IPK 000 110 16] | – | 6.0 | 179.5 | 86 | 59 | – | – | – | – | – |
| Cc1sc(/N=C/c2ccc([N+](=O)[O-])s2)c(C(N)=O)c1C [IPK 000 110 17] | – | 12.9 | 155.5 | 71.6 | 55.6 | – | – | – | – | – |
| CC(/C=N/NC(=O)c1ccccn1)=C\c1ccco1 [IPK 000 110 79] | – | 22.8 | 462.3 | 83.4 | 72.9 | – | – | – | – | – |
| CC1=C(Nc2ccc(S(=O)(=O)Nc3nc(C)cc(C)n3)cc2)Sc2ccccc2N1 [IPK 000 112 67] | – | 27.6 | 250.8 | 32.6 | -36.5 | – | – | – | – | – |

| SMILES | melting point | Primary QIM CellNb (Raw264.7 cells [1]) | Primary QIM CellNb (Raw264.7 cells [2]) | inhibition at 20 µM [3, 4] [%] | inhibition at 20 µM [3, 5] [%] | QIM Confirm CellNb 2 uM (Raw264.7 cells [1]) | QIM Confirm CellNb 2 uM (Raw264.7 cells [2]; confirmation) | QIM Confirm CellNb 0.2 uM (Raw264.7 cells [2]; confirmation, 0.2 uM) | decrease in the number of CFUs (M. tuberculosis H37Rv) | bacterial load and host cell abundance versus DMSO control [3] |
| --- | --- | --- | --- | --- | --- | --- | --- | --- | --- | --- |
| COc1cccc(C2Nc3ccc(C(=O)O)cc3C3C=CCC32)c1 (stereo not shown) [IPK 000 112 80] | – | 10.7 | 152.0 | 55.6 | 41.1 | 98.3 | 189.0 | – | – | – |
| Cc1cc(/C=C(/C#N)C(=O)Nc2cccc(Br)c2)c(C)n1-c1ccc(C(=O)O)cc1 [IPK 000 113 05] | – | 31.6 | 162.0 | 56.4 | 55.4 | – | – | – | – | – |
| O=C(NC12CC3CC(CC(C3)C1)C2)c1ccc([N+](=O)[O-])cc1 [IPK 000 113 77] | – | 48.4 | 319.8 | 74.3 | 60.9 | – | – | – | – | – |
| O=[N+]([O-])c1ccc(O)c(C2NN=C(c3ccccc3)S2)c1 (stereo not shown) [IPK 000 114 01] | – | 7.3 | 163.5 | -1.5 | 3.2 | – | – | – | – | – |
| CCCC(=O)/N=C(\N)Nc1nc2ccccc2o1 [IPK 000 122 62] | – | 26.2 | 131.5 | 65.1 | 62.8 | – | – | – | – | – |
| NNC(=O)c1ccc(COc2cc(Cl)ccc2Cl)o1 [IPK 000 123 02] | – | 45.3 | 411.8 | 78.2 | 76.8 | – | – | – | – | – |
| NNC(=O)c1ccc(COc2ccccc2Cl)o1 [IPK 000 123 03] | – | 12.0 | 540.8 | 72.1 | 78.3 | – | – | – | – | – |
| NNC(=O)c1ccc(COc2ccc3c(c2)CCC3)o1 [IPK 000 123 30] | – | 72.5 | 296.8 | 64.1 | 77.2 | – | – | – | – | – |
| O=C(NC1CCCCC1)c1ccc(COc2cc(Cl)ccc2Cl)o1 [IPK 000 123 90] | – | 26.7 | 205.0 | 87.7 | 73.1 | – | – | – | – | – |
| CN1CCN(NC(=O)c2ccc(COc3ccc(Cl)cc3Cl)o2)CC1 [IPK 000 123 92] | – | 32.3 | 135.8 | 15.4 | 45.3 | – | – | – | – | – |
| O=C(Nc1cccnc1)c1ccc(COc2ccc3ccccc3c2)o1 [IPK 000 124 43] | – | 26.2 | 168.3 | 64.7 | 35.6 | – | – | – | – | – |
| O=C(Nc1nccs1)c1ccc(COc2ccc(Cl)cc2)o1 [IPK 000 124 54] | – | 16.4 | 503.3 | 75 | 75.5 | – | – | – | – | – |
| NNC(=O)c1ccc(COc2ccccc2Br)o1 [IPK 000 124 64] | – | 54.7 | 501.5 | 78.2 | 79.9 | – | – | – | – | – |
| NNC(=O)c1ccc(COc2ccc(F)cc2)o1 [IPK 000 124 65] | – | 45.0 | 490.8 | 94.3 | 77.1 | – | – | 267.0 | – | – |
| Cc1cccn2c(=O)c(CO)c(Nc3cccc(Cl)c3)nc12 [compound 232, 2-(3-Chlorophenylamino)-3-(hydroxymethyl)-9-methyl-4H-pyrido[1,2-a]pyrimidin-4-one] | – | – | – | – | – | – | – | – | ten-fold decrease | harbored fewer bacteria compared to DMSO control and were more abundant |
